{"source": "ChEMBL document CHEMBL3397006", "about": "“Synthesis and evaluation of the diarylthiourea analogs as novel anti-cancer agents” (Bioorg Med Chem Lett, 2015)", "key": {"[1]": {"experiment": "Cytotoxicity against human PC3 cells assessed as reduction in cell viability after 48 hrs by MTT assay", "format": "functional", "conditions": "PC-3, 48 h"}, "[2]": {"test_system": "LNCaP", "experiment": "Cytotoxicity against human LNCAP cells assessed as reduction in cell viability after 48 hrs by MTT assay", "format": "functional"}, "[3]": {"test_system": "T47D", "experiment": "Cytotoxicity against human T47D cells assessed as reduction in cell viability after 48 hrs by MTT assay", "format": "functional"}, "[4]": {"test_system": "MDA-MB-453", "experiment": "Cytotoxicity against human MDA-MB-453 cells assessed as reduction in cell viability after 48 hrs by MTT assay", "format": "functional", "conditions": "MDA-MB-453, 48 h"}, "[5]": {"test_system": "MCF7", "experiment": "Cytotoxicity against human MCF7 cells assessed as reduction in cell viability after 48 hrs by MTT assay", "format": "functional", "conditions": "MCF7, 48 h"}, "[6]": {"test_system": "DU-145", "experiment": "Cytotoxicity against human DU145 cells assessed as reduction in cell viability after 48 hrs by MTT assay", "format": "functional", "conditions": "DU-145, 48 h"}, "[7]": {"test_system": "LNCaP", "experiment": "Selectivity index, ratio of GI50 for human DU145 cells to GI50 for human LNCAP cells", "format": "functional"}, "[8]": {"test_system": "LNCaP", "experiment": "Selectivity index, ratio of GI50 for human PC3 cells to GI50 for human LNCAP cells", "format": "functional"}, "[9]": {"test_system": "T47D", "experiment": "Growth inhibition of human T47D cells at 0.5 to 20 uM after 4 days by MTT assay", "format": "functional, cell-based"}, "[10]": {"test_system": "MDA-MB-453", "experiment": "Growth inhibition of human MDA-MB-453 cells at 0.5 to 20 uM after 4 days by MTT assay", "format": "functional, cell-based"}, "[11]": {"test_system": "MCF7", "experiment": "Growth inhibition of human MCF7 cells at 0.5 to 20 uM after 4 days by MTT assay", "format": "functional, cell-based"}, "[12]": {"test_system": "LNCaP", "experiment": "Growth inhibition of human LNCAP cells at 0.5 to 20 uM after 4 days by […] assay"}, "[13]": {"experiment": "Growth inhibition of human PC3 cells", "format": "functional", "conditions": "PC-3"}, "[14]": {"experiment": "Protein binding in plasma (unknown origin)", "format": "ADME, cell-free", "conditions": "read-out: PPB (converted)"}, "[15]": {"experiment": "Systemic bioavailability in rat", "format": "ADME, organism-based", "conditions": "in vivo"}, "[16]": {"test_system": "T47D", "experiment": "Growth inhibition of human T47D cells", "format": "functional"}, "[17]": {"test_system": "DU-145", "experiment": "Growth inhibition of human DU145 cells", "format": "functional"}, "[18]": {"experiment": "Toxicity in dog", "conditions": "in vivo"}, "[19]": {"test_system": "MCF7", "experiment": "Growth inhibition of human MCF7 cells", "format": "functional"}, "[20]": {"test_system": "MDA-MB-453", "experiment": "Growth inhibition of human MDA-MB-453 cells", "format": "functional"}}, "note": "Activity calls are given as the source filed them. The rule behind the calls is not given here.", "data": [{"smiles": "CCn1c2ccccc2c2cc(NC(=S)Nc3ccc([N+](=O)[O-])cc3)ccc21", "values": [{"measurement": "GI50", "setting": "[1]", "result": 19.6, "unit": "µM"}, {"measurement": "GI50", "setting": "[2]", "result": 5.86, "unit": "µM"}, {"measurement": "GI50", "setting": "[3]", "result": 9.44, "unit": "µM"}, {"measurement": "GI50", "setting": "[4]", "result": 6.88, "unit": "µM"}, {"measurement": "GI50", "setting": "[5]", "result": 12.8, "unit": "µM"}, {"measurement": "GI50", "setting": "[6]", "result": 5.87, "unit": "µM"}]}, {"smiles": "CC(NC(=S)Nc1ccc([N+](=O)[O-])cc1)c1cccc2ccccc12", "note": "(stereo not drawn)", "values": [{"measurement": "Selectivity Index", "setting": "[7]", "result": 2}, {"measurement": "GI50", "setting": "[1]", "result": 13.9, "unit": "µM"}, {"measurement": "GI50", "setting": "[2]", "result": 6.05, "unit": "µM"}, {"measurement": "Selectivity Index", "setting": "[8]", "result": 2}, {"measurement": "GI50", "setting": "[3]", "result": 2.94, "unit": "µM"}, {"measurement": "GI50", "setting": "[4]", "result": 6.27, "unit": "µM"}, {"measurement": "GI50", "setting": "[5]", "result": 6.21, "unit": "µM"}, {"measurement": "GI50", "setting": "[6]", "result": 13.7, "unit": "µM"}]}, {"smiles": "O=[N+]([O-])c1ccc(NC(=S)Nc2ccc3c(c2)Cc2cc(Br)ccc2-3)cc1", "values": [{"measurement": "GI50", "setting": "[1]", "result": 16.5, "unit": "µM"}, {"measurement": "GI50", "setting": "[2]", "result": 11.3, "unit": "µM"}, {"measurement": "GI50", "setting": "[3]", "result": 3.96, "unit": "µM"}, {"measurement": "GI50", "setting": "[4]", "result": 6.2, "unit": "µM"}, {"measurement": "GI50", "setting": "[5]", "result": 7.81, "unit": "µM"}, {"measurement": "GI50", "setting": "[6]", "result": 17.5, "unit": "µM"}]}, {"smiles": "O=c1oc2ccc(NC(=S)Nc3ccc([N+](=O)[O-])cc3)cc2c2ccccc12", "values": [{"measurement": "GI50", "setting": "[1]", "result": 22.6, "unit": "µM"}, {"measurement": "GI50", "setting": "[2]", "result": 12.8, "unit": "µM"}, {"measurement": "GI50", "setting": "[3]", "result": 8.68, "unit": "µM"}, {"measurement": "GI50", "setting": "[4]", "result": 27.6, "unit": "µM"}, {"measurement": "GI50", "setting": "[5]", "result": 13.1, "unit": "µM"}, {"measurement": "GI50", "setting": "[6]", "result": 24.1, "unit": "µM"}]}, {"smiles": "O=[N+]([O-])c1ccc(NC(=S)Nc2ccc3sccc3c2)cc1", "values": [{"measurement": "GI50", "setting": "[1]", "result": "> 50", "unit": "µM"}, {"measurement": "GI50", "setting": "[2]", "result": 23.5, "unit": "µM"}, {"measurement": "GI50", "setting": "[3]", "result": 15.3, "unit": "µM"}, {"measurement": "GI50", "setting": "[4]", "result": "> 50", "unit": "µM"}, {"measurement": "GI50", "setting": "[5]", "result": "> 50", "unit": "µM"}, {"measurement": "GI50", "setting": "[6]", "result": "> 50", "unit": "µM"}]}, {"smiles": "Cc1cc(=O)oc2cc(NC(=S)Nc3ccc([N+](=O)[O-])cc3)ccc12", "values": [{"measurement": "GI50", "setting": "[1]", "result": "> 50", "unit": "µM"}, {"measurement": "GI50", "setting": "[2]", "result": "> 50", "unit": "µM"}, {"measurement": "GI50", "setting": "[3]", "result": "> 50", "unit": "µM"}, {"measurement": "GI50", "setting": "[4]", "result": "> 50", "unit": "µM"}, {"measurement": "GI50", "setting": "[5]", "result": 9.89, "unit": "µM"}, {"measurement": "GI50", "setting": "[6]", "result": "> 50", "unit": "µM"}]}, {"smiles": "Cc1ccc(NC(=S)Nc2ccc([N+](=O)[O-])cc2)cc1C", "values": [{"measurement": "GI50", "setting": "[1]", "result": 26.8, "unit": "µM"}, {"measurement": "GI50", "setting": "[2]", "result": 10.6, "unit": "µM"}, {"measurement": "GI50", "setting": "[3]", "result": 8.14, "unit": "µM"}, {"measurement": "GI50", "setting": "[4]", "result": 13.5, "unit": "µM"}, {"measurement": "GI50", "setting": "[5]", "result": 17, "unit": "µM"}, {"measurement": "GI50", "setting": "[6]", "result": 35.1, "unit": "µM"}]}, {"smiles": "O=[N+]([O-])c1ccc(NC(=S)Nc2cc3ccccc3c3ccccc23)cc1", "values": [{"measurement": "GI50", "setting": "[1]", "result": 19.3, "unit": "µM"}, {"measurement": "GI50", "setting": "[2]", "result": 7.29, "unit": "µM"}, {"measurement": "GI50", "setting": "[3]", "result": 11.6, "unit": "µM"}, {"measurement": "GI50", "setting": "[4]", "result": 14.5, "unit": "µM"}, {"measurement": "GI50", "setting": "[5]", "result": 13.3, "unit": "µM"}, {"measurement": "GI50", "setting": "[6]", "result": 6.11, "unit": "µM"}]}, {"smiles": "O=[N+]([O-])c1ccc(NC(=S)Nc2cc3c4ccccc4ccc3c3ccccc23)cc1", "values": [{"measurement": "growth inhibition (GI)", "setting": "[9]", "result": "Active"}, {"measurement": "Selectivity Index", "setting": "[7]", "result": 6}, {"measurement": "GI50", "setting": "[1]", "result": 20, "unit": "µM"}, {"measurement": "GI50", "setting": "[2]", "result": 3.54, "unit": "µM"}, {"measurement": "Selectivity Index", "setting": "[8]", "result": 6}, {"measurement": "growth inhibition (GI)", "setting": "[10]", "result": "Active"}, {"measurement": "GI50", "setting": "[3]", "result": 2.53, "unit": "µM"}, {"measurement": "GI50", "setting": "[4]", "result": 4.77, "unit": "µM"}, {"measurement": "GI50", "setting": "[5]", "result": 3.16, "unit": "µM"}, {"measurement": "growth inhibition (GI)", "setting": "[11]", "result": "Active"}, {"measurement": "growth inhibition (GI)", "setting": "[12]", "result": "Active"}, {"measurement": "GI50", "setting": "[6]", "result": 21.8, "unit": "µM"}]}, {"smiles": "Cc1cc2cc(NC(=S)Nc3ccc([N+](=O)[O-])cc3)ccc2[nH]1", "values": [{"measurement": "GI50", "setting": "[1]", "result": "> 50", "unit": "µM"}, {"measurement": "GI50", "setting": "[2]", "result": 40.5, "unit": "µM"}, {"measurement": "GI50", "setting": "[3]", "result": 21.6, "unit": "µM"}, {"measurement": "GI50", "setting": "[4]", "result": "> 50", "unit": "µM"}, {"measurement": "GI50", "setting": "[5]", "result": "> 50", "unit": "µM"}, {"measurement": "GI50", "setting": "[6]", "result": "> 50", "unit": "µM"}]}, {"smiles": "CC1(C)CC(C)(C)c2cc(NC(=S)Nc3ccc([N+](=O)[O-])cc3)ccc2S1", "note": "[SHETA-2]", "values": [{"measurement": "GI50", "setting": "[13]", "result": 5, "unit": "µM"}, {"measurement": "fraction unbound", "setting": "[14]", "result": 0.007}, {"measurement": "GI50", "setting": "[1]", "result": 4.8, "unit": "µM"}, {"measurement": "GI50", "setting": "[2]", "result": 2.25, "unit": "µM"}, {"measurement": "bioavailability", "setting": "[15]", "result": "< 1", "unit": "%"}, {"measurement": "GI50", "setting": "[16]", "result": 4.8, "unit": "µM"}, {"measurement": "GI50", "setting": "[17]", "result": 4.9, "unit": "µM"}, {"measurement": "GI50", "setting": "[3]", "result": 3.99, "unit": "µM"}, {"measurement": "GI50", "setting": "[4]", "result": 3.27, "unit": "µM"}, {"measurement": "GI50", "setting": "[5]", "result": 4.13, "unit": "µM"}, {"measurement": "NOAEL", "setting": "[18]", "result": "> 1500", "unit": "mg/kg"}, {"measurement": "GI50", "setting": "[6]", "result": 3.47, "unit": "µM"}, {"measurement": "GI50", "setting": "[19]", "result": 4.5, "unit": "µM"}, {"measurement": "GI50", "setting": "[20]", "result": 5, "unit": "µM"}]}, {"smiles": "CC1=C(/C=C/C(C)=C/C=C/C(C)=C/C(=O)O)C(C)(C)CCC1", "note": "[TRETINOIN]", "values": [{"measurement": "GI50", "setting": "[1]", "result": 12.6, "unit": "µM"}, {"measurement": "GI50", "setting": "[2]", "result": 10.3, "unit": "µM"}, {"measurement": "GI50", "setting": "[3]", "result": 0.82, "unit": "µM"}, {"measurement": "GI50", "setting": "[4]", "result": 9.51, "unit": "µM"}, {"measurement": "GI50", "setting": "[5]", "result": 12.4, "unit": "µM"}, {"measurement": "GI50", "setting": "[6]", "result": 11.6, "unit": "µM"}]}]}
